Data from US20230142592A1, “AROMATIC COMPOUND, ORGANIC SEMICONDUCTOR LAYER AND ORGANIC THIN FILM TRANSISTOR” (TOSOH CORPORATION, priority 2020, published 2023).

Tests used:
[1] = Solution for forming organic semiconductor layer: kept in solution state in toluene at 25° C.; format: physicochemical; settings: heated to 50° C. to dissolve, allowed to cool at room temperature (25° C.)
Protocol: In the air, in a 10 mL sample tube, 0.87 mg of 2,7-di(2-phenylethyl)dithienobiphenylene (Compound 1) synthesized in Example 1 and 434 mg of toluene (FUJIFILM Wako Pure Chemical Corporation, pure grade) was added and the resultant was heated to 50° C. to dissolve, and then allowed to cool at room temperature (25° C.) to thereby prepare a solution for forming an organic semiconductor layer.
The solution for forming an organic semiconductor layer was kept in a solution state after 10 hours at 25° C. (concentration of Compound 1: 0.20% by weight), confirming that this was a compound suitable for film formation by drop casting and inkjet.

[2] = Bottom gate-bottom contact p-type organic thin film transistor, transfer characteristics; settings: toluene solution, annealed at 130° C. for 10 min
Protocol: (§1) Furthermore, this organic thin film transistor was annealed at 130° C. for 10 min and then measured for an electric physical property.

[3] = Solution for forming organic semiconductor layer: kept in solution state in toluene at 25° C.; format: physicochemical; settings: .44 mg in 434 mg of toluene; heated to 50° C., allowed to cool at 25° C.
[4] = generally; cited from earlier work
[5] = Top gate-bottom contact p-type organic thin film transistor, transfer characteristics; settings: annealed at 130° C. for 10 min
Protocol: The solution for forming an organic semiconductor layer obtained in Example 2 was used to produce a top gate-bottom contact p-type organic thin film transistor.
as §1

## 2,7-di(2-(4-butylphenyl)ethyl)dithienobiphenylene [Compound 5]
[1]
  concentration of solution kept in a solution state after 10 hours at 25° C.: 0.40 % by weight

## 2,7-di(2-(4-heptylphenyl)ethyl)dithienobiphenylene [Compound 6]
[1]
  concentration of solution kept in a solution state after 10 hours at 25° C.: 0.20 % by weight

## 2,7-di(2-(4-propylphenyl)ethyl)dithienobiphenylene [Compound 4]
[1]
  concentration of solution kept in a solution state after 10 hours at 25° C.: 0.10 % by weight

## CCCCCCCCc1ccc2c(c1)sc1c3ccc(CCCCCCCC)cc3sc21 [2,7-dioctyl[1]benzothieno[3,2-b][1]benzothiophene, reference compound]
[2]
  degradation in performance due to heat treatment: transistor operation was not achieved
[1]
  concentration of solution kept in a solution state after 10 hours at 25° C.: 0.20 % by weight

## c1ccc(-c2ccc3c(c2)sc2c4ccc(-c5ccccc5)cc4sc32)cc1 [2,7-diphenyl[1]benzothieno[3,2-b][1]benzothiophene]
[3]
  solution state after cooling to room temperature (solubility): a solid was deposited
[4]
  solubility in an organic solvent: almost insoluble

## CCCCCCCCc1cc2ccc3cc4c(ccc5cc(CCCCCCCC)sc54)cc3c2s1 [2,8-dioctylanthra[1,2-b:5,6-b′]dithiophene, reference compound]
[1]
  concentration of solution kept in a solution state after 10 hours at 25° C.: 0.20 % by weight

## c1ccc(CCc2cc3ccc4c(c3s2)-c2ccc3cc(CCc5ccccc5)sc3c2-4)cc1 [Compound 1, 2,7-di(2-phenylethyl)dithienobiphenylene]
[2]
  degradation in performance due to heat treatment: almost no degradation in performance
[1]
  concentration of solution kept in a solution state after 10 hours at 25° C.: 0.20 % by weight
other
  melting point: 195 °C
[5]
  degradation in performance due to heat treatment: almost no degradation in performance

## c1ccc(CCc2cc3ccc4cc5c(ccc6cc(CCc7ccccc7)sc65)cc4c3s2)cc1 [Compound 10, 2,8-di(2-phenylethyl)anthra[1,2-b:5,6-b′]dithiophene]
[1]
  concentration of solution kept in a solution state after 10 hours at 25° C.: 0.20 % by weight

## c1ccc(CCc2cc3ccc4c(c3s2)-c2ccc3ccsc3c2-4)cc1 [Compound 13, 2-(2-phenylethyl)dithienobiphenylene]
[1]
  concentration of solution kept in a solution state after 10 hours at 25° C.: 1.00 % by weight
other
  melting point: 161 °C

## Cc1ccc(CCc2cc3ccc4c(c3s2)-c2ccc3ccsc3c2-4)cc1 [Compound 14, 2-(2-(4-methylphenyl)ethyl)dithienobiphenylene]
[1]
  concentration of solution kept in a solution state after 10 hours at 25° C.: 1.00 % by weight

## c1ccc(CCc2cc3ccc4cc5c(ccc6ccsc65)cc4c3s2)cc1 [Compound 15, 2-(2-phenylethyl)anthra[1,2-b:5,6-b′]dithiophene]
[1]
  concentration of solution kept in a solution state after 10 hours at 25° C.: 0.40 % by weight

## Cc1ccc(CCc2cc3ccc4cc5c(ccc6ccsc65)cc4c3s2)cc1 [Compound 16, 2-(2-(4-methylphenyl)ethyl)anthra[1,2-b:5,6-b′]dithiophene]
[1]
  concentration of solution kept in a solution state after 10 hours at 25° C.: 0.50 % by weight

## CCCCc1ccc(CCc2cc3ccc4cc5c(ccc6ccsc65)cc4c3s2)cc1 [Compound 17, 2-(2-(4-n-butylphenyl)ethyl)anthra[1,2-b:5,6-b′]dithiophene]
[2]
  degradation in performance due to heat treatment: almost no degradation in performance
[1]
  concentration of solution kept in a solution state after 10 hours at 25° C.: 1.00 % by weight

## CCCCCCCc1ccc(CCc2cc3ccc4cc5c(ccc6ccsc65)cc4c3s2)cc1 [Compound 18, 2-(2-(4-n-heptylphenyl)ethyl)anthra[1,2-b:5,6-b′]dithiophene]
[1]
  concentration of solution kept in a solution state after 10 hours at 25° C.: 0.20 % by weight

## CCCOc1ccc(CCc2cc3ccc4cc5c(ccc6ccsc65)cc4c3s2)cc1 [Compound 23, 2-(2-(4-propoxyphenyl)ethyl)anthra[1,2-b:5,6-b′]dithiophene]
[1]
  concentration of solution kept in a solution state after 10 hours at 25° C.: 1.00 % by weight

## COc1ccc(CCc2cc3ccc4cc5c(ccc6ccsc65)cc4c3s2)cc1 [Compound 24, 2-(2-(4-methoxyphenyl)ethyl)anthra[1,2-b:5,6-b′]dithiophene]
[1]
  concentration of solution kept in a solution state after 10 hours at 25° C.: 0.10 % by weight
